Experimental data from US12496350B2 (Ohio State Innovation Foundation, priority 2018, dated 2025).
Where a SMILES comes first, the peptide text is derived from it. Where no end group is shown, it is not given here. [ ]: non-standard residue; d: D form. The star is where a group is joined. X2 = O=C(O)c1cc(C(=O)*)ccc1-c1c2ccc(=O)cc-2oc2cc(O)ccc12; X1 = O=C(O)c1cc(NC(=S)*)ccc1C1c2ccc(O)cc2Oc2cc(O)ccc21; X3 = O=C(O)c1cc(C(=O)*)ccc1C1c2ccc(O)cc2Oc2cc(O)ccc21; 1Nal = N[C@@H](Cc1cccc2ccccc12)C(=O)O; 2Nal = N[C@@H](Cc1ccc2ccccc2c1)C(=O)O; Bta = N[C@@H](Cc1csc2ccccc12)C(=O)O; Pen = CC(C)(S)[C@H](N)C(=O)O; Tle = CC(C)(C)[C@H](N)C(=O)O; AEEA = NCCOCCOCC(=O)O

Target: CAL PDZ binding domain (Homo sapiens, UniProt Q9HD26)
Assay: not given
Settings: CAL PDZ binding sequences not conjugated to a cCPP; cited from earlier work

First: WQFTKL [WQFTKL]
Second: WQFTRL [WQFTRL]
The Ki of the first is 2.1-fold higher: 16 ± 1 µM for the first, 7.6 ± 0.7 µM for the second.

WQKTKL [WQKTKL] and WQKTRI [WQKTRI] are within 1.5-fold of each other in Ki: 17.8 ± 0.8 µM for the first, 12 ± 0.9 µM for the second.

First: WQKTRL [WQKTRL]
Second: WQKTRV [WQKTRV]
The Ki of the first is 1.8-fold lower: 9 ± 0.6 µM for the first, 16 ± 2 µM for the second. The first binds more tightly here.

WQLTKL [WQLTKL] and WQRTRI [WQRTRI] are within error of each other in Ki: 17 ± 1 µM for the first, 16 ± 2 µM for the second.

First: WQRTRL [WQRTRL]
Second: WQRTRV [WQRTRV]
The Ki of the first is 1.7-fold lower: 10.8 ± 0.7 µM for the first, 18 ± 1 µM for the second.

In the case of WQVTRV [WQVTRV], the Ki is given as 2.3 ± 0.2 µM.

Target: T1, CAL PDZ domain (CALP5-His) (Homo sapiens, UniProt Q9HD26)
T1 construct: His
Assay: FP-based competition assay, Condition B (probe FAM-[…]-OH)
Format: binding
Settings: Condition B (superscript b): 100 nM probe FAM-[…]-OH, 500 nM CALP5-His, 5 mM DTT
Description: Serial dilutions of each competitor peptide were prepared in PBS and the incubation solution was added to each. The combined solutions were gently mixed for 1 h at RT after which 20 uL sample was pipetted into 384-well black-on-black microplates and fluorescence polarization was measured using a TECAN Infinite M1000 plate reader. Data was processed to determine IC50 using GraphPad PRISM ver. 6.0.

CC(=O)N[C@@H](CS)C(=O)N[C@@H](CCCNC(=N)N)C(=O)N[C@@H](CCCNC(=N)N)C(=O)N[C@@H](CCCNC(=N)N)C(=O)N[C@@H](Cc1ccccc1)C(=O)N[C@@H](Cc1c[nH]c2ccccc12)C(=O)N[C@@H](CCC(N)=O)C(=O)N[C@@H](CS)C(=O)N[C@H](C(=O)N[C@@H](CCCNC(=N)N)C(=O)N[C@@](C)(CC(C)C)C(=O)O)[C@@H](C)O [Compound 4] showed an IC50 of over 20 µM.

Same assay, conditions: Pen for cysteine at P-3

In the case of CC(=O)N[C@@H](CS)C(=O)N[C@@H](CCCNC(=N)N)C(=O)N[C@@H](CCCNC(=N)N)C(=O)N[C@@H](CCCNC(=N)N)C(=O)N[C@@H](Cc1ccccc1)C(=O)N[C@@H](Cc1c[nH]c2ccccc12)C(=O)N[C@@H](CCC(N)=O)C(=O)N[C@H](C(=O)N[C@H](C(=O)N[C@@H](CCCNC(=N)N)C(=O)N[C@H](C(=O)O)C(C)(C)C)[C@@H](C)O)C(C)(C)S [Compound 16, Ac-Cys-Arg-Arg-Arg-Phe-Trp-Gln-Pen-Thr-Arg-Tle-OH], the “improvement of CAL binding” value is reported as about 2 fold.

Same assay, conditions: Trp replaced with 1- or 2-naphthylalanine

In the case of CC(=O)N[C@@H](CS)C(=O)N[C@@H](CCCNC(=N)N)C(=O)N[C@@H](CCCNC(=N)N)C(=O)N[C@@H](CCCNC(=N)N)C(=O)N[C@@H](Cc1ccccc1)C(=O)N[C@@H](Cc1cccc2ccccc12)C(=O)N[C@@H](CCC(N)=O)C(=O)N[C@@H](CS)C(=O)N[C@H](C(=O)N[C@@H](CCCNC(=N)N)C(=O)N[C@H](C(=O)O)C(C)(C)C)[C@@H](C)O [Compound 14, Ac-Cys-Arg-Arg-Arg-Phe-(1-Nal)-Gln-Cys-Thr-Arg-Tle-OH] (Ac-CRRRF[1Nal]QCTR[Tle]-OH), the “effect of substitution at P-5 on binding” value is reported as “did not significantly affect the binding”.
For CC(=O)N[C@@H](CS)C(=O)N[C@@H](CCCNC(=N)N)C(=O)N[C@@H](CCCNC(=N)N)C(=O)N[C@@H](CCCNC(=N)N)C(=O)N[C@@H](Cc1ccccc1)C(=O)N[C@@H](Cc1ccc2ccccc2c1)C(=O)N[C@@H](CCC(N)=O)C(=O)N[C@@H](CS)C(=O)N[C@H](C(=O)N[C@@H](CCCNC(=N)N)C(=O)N[C@H](C(=O)O)C(C)(C)C)[C@@H](C)O [Compound 15, Ac-Cys-Arg-Arg-Arg-Phe-(2-Nal)-Gln-Cys-Thr-Arg-Tle-OH] (Ac-CRRRF[2Nal]QCTR[Tle]-OH), the “effect of substitution at P-5 on binding” value was “did not significantly affect the binding”.

Target: T1, CAL PDZ domain (CALP5-His)
Assay: Direct fluorescence polarization binding of labeled peptide, Condition C
Settings: not given
Description: Condition C (denoted with superscript ^C): 50 nM labeled peptide was incubated with 2 mM TCEP in PBS at pH 7.4 containing 0.01% Triton-X100. CALP5-His was serially diluted in PBS containing 0.01% Triton-X100 to which was then added the peptide and TCEP solution. This solution was mixed for 1 h at RT then 20 uL was pipetted into 384-well microplates and fluorescence polarization was measured using a TECAN Infinite M1000 plate reader. KD values were calculated using KaleidaGraph v. 3.6 using the equation: […]
Binding Affinity and Selectivity. The potency and selectivity of inhibitor 29 was first assessed by comparing its binding affinity to the four PDZ domains of CAL, NHERF1, and NHERF2, which are involved in the trafficking of CFTR to and from the plasma membrane. Peptides were labeled with FITC at the N-terminus through a miniPEG linker and tested for binding to various PDZ domains by fluorescence polarization (FP). FITC-labeled peptide (50 nM) was incubated with varying concentrations of PDZ domain in PBS (pH 7.4) containing 0.01% Triton X-100 and 2 mM TCEP for 1 h at room temperature. After 1 h, 20 μL of each sample was pipetted into 384-well black-on-black microplates and fluorescence polarization was measured by using a TECAN Infinite M1000 plate reader. Data was processed using GraphPad PRISM ver. 8.0.

In the case of C[C@@H](O)[C@H](NC(=O)[C@@H](NC(=O)[C@@H](NC(=O)[C@H](Cc1csc2ccccc12)NC(=O)[C@H](Cc1ccc2ccccc2c1)NC(=O)[C@H](CCCNC(=N)N)NC(=O)[C@H](CCCNC(=N)N)NC(=O)[C@@H](CCCNC(=N)N)NC(=O)[C@H](CS)NC(=O)COCCOCCNC(=O)c1ccc(-c2c3ccc(=O)cc-3oc3cc(O)ccc23)c(C(=O)O)c1)C(C)(C)S)C(C)(C)C)C(=O)N[C@@H](CCCNC(=N)N)C(=O)N[C@H](C(=O)O)C(C)(C)C [Compound 26, FAM-miniPEG-Cys-(D-Arg)-Arg-Arg-(2-Nal)-(Bta)-Pen-Tle-Thr-Arg-Tle-OH] ({X2-AEEA}-C[dR]RR[2Nal][Bta][Pen][Tle]TR[Tle]-OH), the “specificity for CAL PDZ domain relative to other PDZ domains (e.g., NHERF PDZ domains)” value is reported as “relatively low specificity”.

Same assay, conditions: Condition C (superscript c): 50 nM labeled peptide, 2 mM TCEP; read-out: KD (printed in the IC50 (nM) column)

Going from C[C@@H](O)[C@H](NC(=O)[C@@H](NC(=O)[C@@H]1CCCN1C(=O)[C@H](Cc1c[nH]c2ccccc12)NC(=O)[C@H](Cc1ccc2ccccc2c1)NC(=O)[C@H](CCCNC(=N)N)NC(=O)[C@H](CCCNC(=N)N)NC(=O)[C@H](CCCNC(=N)N)NC(=O)[C@H](CS)NC(=O)COCCOCCNC(=O)c1ccc(C2c3ccc(O)cc3Oc3cc(O)ccc32)c(C(=O)O)c1)C(C)(C)S)C(=O)N[C@@H](CCCNC(=N)N)C(=O)N[C@H](C(=O)O)C(C)(C)C [Compound 23, FAM-miniPEG-Cys-(D-Arg)-Arg-Arg-(2-Nal)-Trp-Pro-Pen-Thr-Arg-Tle-OH] ({X3-AEEA}-CRRR[2Nal]WP[Pen]TR[Tle]-OH) to C[C@@H](O)[C@H](NC(=O)[C@@H](NC(=O)[C@@H](NC(=O)[C@H](Cc1csc2ccccc12)NC(=O)[C@H](Cc1ccc2ccccc2c1)NC(=O)[C@H](CCCNC(=N)N)NC(=O)[C@H](CCCNC(=N)N)NC(=O)[C@@H](CCCNC(=N)N)NC(=O)[C@H](CS)NC(=O)COCCOCCNC(=O)c1ccc(-c2c3ccc(=O)cc-3oc3cc(O)ccc23)c(C(=O)O)c1)C(C)(C)S)C(C)(C)C)C(=O)N[C@@H](CCCNC(=N)N)C(=O)N[C@H](C(=O)O)C(C)(C)C [Compound 26, FAM-miniPEG-Cys-(D-Arg)-Arg-Arg-(2-Nal)-(Bta)-Pen-Tle-Thr-Arg-Tle-OH] ({X2-AEEA}-C[dR]RR[2Nal][Bta][Pen][Tle]TR[Tle]-OH), the Kd falls from 168 nM to 49 ± 3 nM (3.4-fold). The second binds more tightly here.

Same assay, conditions: FITC-labeled peptide, FP; read-out: Affinity (KD)

Compared with CC(=O)N[C@@H](CS)C(=O)N[C@H](CCCNC(=N)N)C(=O)N[C@@H](CCCNC(=N)N)C(=O)N[C@@H](CCCNC(=N)N)C(=O)N[C@@H](Cc1ccc2ccccc2c1)C(=O)N[C@@H](Cc1c[nH]c2ccccc12)C(=O)N1CCC[C@H]1C(=O)N[C@H](C(=O)N[C@H](C(=O)N[C@@H](CCCNC(=N)N)C(=O)N[C@H](C(=O)O)C(C)(C)C)[C@@H](C)O)C(C)(C)S [Compound 27, Ac-Cys-(D-Arg)-Arg-Arg-Nal-Trp-Pro-Pen-Thr-Arg-Tle-OH] (Ac-C[dR]RR[2Nal]WP[Pen]TR[Tle]-OH), CC(=O)N[C@@H](CS)C(=O)N[C@H](CCCNC(=N)N)C(=O)N[C@@H](CCCNC(=N)N)C(=O)N[C@@H](CCCNC(=N)N)C(=O)N[C@@H](Cc1ccc2ccccc2c1)C(=O)N[C@@H](Cc1csc2ccccc12)C(=O)N1CCC[C@H]1C(=O)N[C@H](C(=O)N[C@H](C(=O)N[C@@H](CCCNC(=N)N)C(=O)N[C@H](C(=O)O)C(C)(C)C)[C@@H](C)O)C(C)(C)S [Compound 28, Ac-Cys-(D-Arg)-Arg-Arg-Nal-Bta-Pro-Pen-Thr-Arg-Tle-OH] (Ac-C[dR]RR[2Nal][Bta]P[Pen]TR[Tle]-OH) is 2.1-fold lower in Kd: 179 nM for the first, 87 nM for the second.

First: C[C@@H](O)[C@H](NC(=O)[C@@H](NC(=O)[C@@H]1CCCN1C(=O)[C@H](Cc1c[nH]c2ccccc12)NC(=O)[C@H](Cc1ccc2ccccc2c1)NC(=O)[C@H](CCCNC(=N)N)NC(=O)[C@H](CCCNC(=N)N)NC(=O)[C@@H](CCCNC(=N)N)NC(=O)[C@H](CS)NC(=O)COCCOCCNC(=S)Nc1ccc(C2c3ccc(O)cc3Oc3cc(O)ccc32)c(C(=O)O)c1)C(C)(C)S)C(=O)N[C@@H](CCCNC(=N)N)C(=O)N[C@H](C(=O)O)C(C)(C)C [Compound 27-FITC, FITC-miniPEG-Cys-(D-Arg)-Arg-Arg-Nal-Trp-Pro-Pen-Thr-Arg-Tle-OH] ({X1-AEEA}-C[dR]RR[2Nal]WP[Pen]TR[Tle]-OH)
Second: C[C@@H](O)[C@H](NC(=O)[C@@H](NC(=O)[C@@H]1CCCN1C(=O)[C@H](Cc1csc2ccccc12)NC(=O)[C@H](Cc1ccc2ccccc2c1)NC(=O)[C@H](CCCNC(=N)N)NC(=O)[C@H](CCCNC(=N)N)NC(=O)[C@@H](CCCNC(=N)N)NC(=O)[C@H](CS)NC(=O)COCCOCCNC(=S)Nc1ccc(C2c3ccc(O)cc3Oc3cc(O)ccc32)c(C(=O)O)c1)C(C)(C)S)C(=O)N[C@@H](CCCNC(=N)N)C(=O)N[C@H](C(=O)O)C(C)(C)C [Compound 28-FITC, FITC-miniPEG-Cys-(D-Arg)-Arg-Arg-Nal-Bta-Pro-Pen-Thr-Arg-Tle-OH] ({X1-AEEA}-C[dR]RR[2Nal][Bta]P[Pen]TR[Tle]-OH)
The Kd of the first is 2.1-fold higher: 179 ± 42 nM for the first, 87 ± 14 nM for the second. The second binds more tightly here.
